From the NIST ThermoML archive (doi:10.1016/j.jct.2003.11.008)

Experiments:
[1] = xn = mol fraction of the nth substance listed; conditions: 318.15 K, 101.3 kPa, Liquid
[2] = excess molar enthalpy (molar enthalpy of mixing); xn = mol fraction of the nth substance listed; conditions: 318.15 K, 101.3 kPa, Liquid

CCCCCCCCCCC [undecane] + CCCOC(C)=O
Conditions	excess molar enthalpy [kcal/mol]	excess molar volume [m3/mol]
[1], x2 = 0.0791	–	3.43e-07
[1], x2 = 0.1544	–	6e-07
[1], x2 = 0.2306	–	8.2e-07
[1], x2 = 0.2908	–	9.49e-07
[1], x2 = 0.3479	–	1.051e-06
[1], x2 = 0.4046	–	1.133e-06
[1], x2 = 0.4573	–	1.159e-06
[1], x2 = 0.51	–	1.176e-06
[1], x2 = 0.5596	–	1.185e-06
[1], x2 = 0.6019	–	1.165e-06
[1], x2 = 0.6553	–	1.125e-06
[1], x2 = 0.6903	–	1.077e-06
[1], x2 = 0.7637	–	9.27e-07
[1], x2 = 0.8486	–	6.89e-07
[1], x2 = 0.9127	–	4.52e-07
[1], x2 = 0.9592	–	2.26e-07
[2], x2 = 0.0814	0.103	–
[2], x2 = 0.1501	0.173	–
[2], x2 = 0.2265	0.24	–
[2], x2 = 0.2928	0.288	–
[2], x2 = 0.3534	0.32	–
[2], x2 = 0.4082	0.341	–
[2], x2 = 0.4582	0.354	–
[2], x2 = 0.5031	0.358	–
[2], x2 = 0.5439	0.358	–
[2], x2 = 0.5841	0.354	–
[2], x2 = 0.6226	0.345	–
[2], x2 = 0.6441	0.332	–
[2], x2 = 0.6911	0.312	–
[2], x2 = 0.7407	0.285	–
[2], x2 = 0.7924	0.25	–
[2], x2 = 0.8458	0.198	–
[2], x2 = 0.8971	0.141	–
[2], x2 = 0.9495	0.078	–

CCCCCCCCCCC [undecane] + CCOC(C)=O
Conditions	excess molar enthalpy [kcal/mol]	excess molar volume [m3/mol]
[1], x2 = 0.0632	–	3.65e-07
[1], x2 = 0.1076	–	5.64e-07
[1], x2 = 0.1921	–	8.99e-07
[1], x2 = 0.2759	–	1.151e-06
[1], x2 = 0.3521	–	1.328e-06
[1], x2 = 0.4213	–	1.429e-06
[1], x2 = 0.4771	–	1.49e-06
[1], x2 = 0.5319	–	1.504e-06
[1], x2 = 0.5859	–	1.504e-06
[1], x2 = 0.6355	–	1.461e-06
[1], x2 = 0.6817	–	1.385e-06
[1], x2 = 0.7223	–	1.311e-06
[1], x2 = 0.7656	–	1.17e-06
[1], x2 = 0.7889	–	1.147e-06
[1], x2 = 0.8628	–	8.46e-07
[1], x2 = 0.9234	–	5.39e-07
[1], x2 = 0.9664	–	2.63e-07
[2], x2 = 0.1003	0.149	–
[2], x2 = 0.1944	0.252	–
[2], x2 = 0.2921	0.343	–
[2], x2 = 0.3767	0.402	–
[2], x2 = 0.4501	0.433	–
[2], x2 = 0.509	0.443	–
[2], x2 = 0.5537	0.441	–
[2], x2 = 0.5965	0.436	–
[2], x2 = 0.6065	0.433	–
[2], x2 = 0.6498	0.413	–
[2], x2 = 0.6942	0.39	–
[2], x2 = 0.7366	0.364	–
[2], x2 = 0.7848	0.326	–
[2], x2 = 0.8361	0.272	–
[2], x2 = 0.8884	0.206	–
[2], x2 = 0.9357	0.141	–
[2], x2 = 0.9742	0.0596	–

CCCCCCCCCCC [undecane] + COC(C)=O
Conditions	excess molar enthalpy [kcal/mol]	excess molar volume [m3/mol]
[1], x2 = 0.1232	–	7.69e-07
[1], x2 = 0.2463	–	1.347e-06
[1], x2 = 0.3266	–	1.58e-06
[1], x2 = 0.3942	–	1.734e-06
[1], x2 = 0.4679	–	1.879e-06
[1], x2 = 0.5333	–	1.922e-06
[1], x2 = 0.5823	–	1.908e-06
[1], x2 = 0.6365	–	1.851e-06
[1], x2 = 0.68	–	1.765e-06
[1], x2 = 0.7221	–	1.676e-06
[1], x2 = 0.76	–	1.554e-06
[1], x2 = 0.7954	–	1.415e-06
[1], x2 = 0.8183	–	1.337e-06
[1], x2 = 0.8875	–	9.9e-07
[1], x2 = 0.935	–	6.43e-07
[1], x2 = 0.9683	–	3.52e-07
[2], x2 = 0.1	0.161	–
[2], x2 = 0.203	0.297	–
[2], x2 = 0.2975	0.406	–
[2], x2 = 0.3707	0.475	–
[2], x2 = 0.4315	0.516	–
[2], x2 = 0.4836	0.538	–
[2], x2 = 0.528	0.547	–
[2], x2 = 0.5612	0.549	–
[2], x2 = 0.5935	0.548	–
[2], x2 = 0.6178	0.544	–
[2], x2 = 0.6538	0.533	–
[2], x2 = 0.6915	0.517	–
[2], x2 = 0.7306	0.494	–
[2], x2 = 0.769	0.463	–
[2], x2 = 0.8102	0.418	–
[2], x2 = 0.851	0.37	–
[2], x2 = 0.888	0.299	–
[2], x2 = 0.9283	0.223	–
[2], x2 = 0.9664	0.124	–
